The test system of experiment [1] is Human myeloid monocytic leukemia cell line (MV-4-11). Kind of experiment: Inhibition of MV-4-11 cell proliferation (CellTiter luminescent viability). Particulars: for IC50: Table IE1, CDK4/6 inhibitor-based, MV-4-11, 96 hours, read-out: Inhibitory activity (IC50, nM) on tumor cell proliferation, MV-4-11. The experiment is classed as cell-based. In short, it runs like this: (§1)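 Cells are seeded in 96-well plates, cultured at 37 °C, 5% CO2, and treated next day with 5-fold serial compound dilutions (stock series from 2000 μM; 0.5 μL into 100 μL medium). Viability is read by CellTiter-Meiluncell luminescence after the set exposure, and IC50 is taken from growth-inhibition curves.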

In experiment [2] the test system is Human acute lymphocytic leukemia T lymphocytes cell line (CCRF-CEM). Kind of experiment: Inhibition of CCRF-CEM cell proliferation (CellTiter luminescent viability). The experiment is classed as cell-based. As to conditions: Table IE1, CDK4/6 inhibitor-based, 96 hours, read-out: Inhibitory activity (IC50, nM) on tumor cell proliferation, CCRF-CEM.
The subject of experiment [3] is Human large cell immunoblastic lymphoma cell line SR. Kind of experiment: Inhibition of SR cell proliferation (CellTiter luminescent viability). Format: cell-based. Particulars: Table IE1, CDK4/6 inhibitor-based, 96 hours, read-out: Inhibitory activity (IC50, nM) on tumor cell proliferation, SR. Summed up:
as §1

Experiment [4] relates to Human breast cancer cell line MCF-7. Kind of experiment: Inhibition of MCF-7 cell proliferation (CellTiter luminescent viability). As to conditions: Table IE1, CDK4/6 inhibitor-based; MCF-7, 96 hours; read-out: Inhibitory activity (IC50, nM) on tumor cell proliferation, MCF-7. The method, then:
The tumor cells used herein were cultured in a cell culture medium listed in table 3 at 37 °C in an incubator with 5% CO2. Prior to experimentation, all cell lines used were correctly identified by STR profiling, and tested negative for mycoplasma contamination using a mycoplasma detection kit through routine screenings.
The IC50 values of the compounds of the present disclosure (including the compounds in Table 1, Table 2, and Examples 1-468) were determined using the CellTiter-Meiluncell Luminescent Cell Viability Assay Kit from Dalian Meilun Biotech Co., Ltd. The detailed procedure is as follows: Tumor cells were seeded in 96-well cell culture plates at the densities specified in Table 4. On the following day, the test compounds of the present disclosure were subjected to serial dilution. The dilution can be performed according to one of the following two methods: • (1) The first dilution method: The test compounds of the present disclosure (including the compounds in Table 1, Table 2, and Examples 1-468) were subjected to 5-fold serial dilutions starting from a highest concentration of 2000 μM, resulting in a total of 9 concentrations from high to low (2000, 400, 80, 16, 3.2, 0.64, 0.128, 0.0256, 0.00512 μM). Subsequently, 0.5 μL of the test compound dilution was transferred into the 96-well plate containing the cells, with each well containing 100 μL of cell culture medium. […] Into the 96-well plate, the diluted test compounds and corresponding detection reagents were added, resulting in final test compound concentrations of 500 nM and 10 nM, respectively. The experimental procedure is described below using the diluted 2 μM test compound as an example.
0.5 μL of the aforementioned diluted compound of the present disclosure (including the compounds in Table 1, Table 2, and Examples 1-468) was added to the seeded cells in 100 μL of medium, yielding a final test compound concentration of 10 nM. After the cells were treated with the compounds of the present disclosure for a specified period, the cell viability assay reagent was added to the culture medium according to the kit's instructions to determine cell viability. […] All controls were treated using the same procedure as the compounds of the present disclosure. The growth inhibition curves for the compounds of the present disclosure were plotted using Prism GraphPad software, and the IC50 values were calculated therefrom.

For a further experiment, the target named is T1, CDK4 (Homo sapiens, UniProt P11802+Q96SW2).
T1 construct: expression of target proteins in cells; endogenous in cells
Kind of experiment: Western blot degradation of CDK4. Format: cell-based. As to conditions: MDA-MB-231 Cell; 24 hours. In short, it runs like this: (§2)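 Cells treated with compound, lysed, and target protein detected by Western blot (SDS-PAGE, nitrocellulose transfer). DC50 taken as the concentration giving band grayscale half that of DMSO control, estimated by concentration-response fitting; remaining protein (%) from target band normalised to internal control band; degradation (%) = 1 − remaining.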
A general note: Immunoblotting shows a protein as a band on a membrane.

A further experiment deals with T2, CDK6 (Homo sapiens, UniProt Q00534+Q96SW2).
T2 construct: expression of target proteins in cells; endogenous in cells
The experiment can be described thus: Western blot degradation of CDK6. The experiment is classed as cell-based. Particulars: MDA-MB-231 Cell; 24 hours. In short, it runs like this:
as §2

Experiment [5] deals with Human Acute T Lymphoblastic Leukemia Cells (Molt-4). Kind of experiment: Inhibition of Molt-4 cell proliferation (CellTiter luminescent viability). Format: cell-based. As to conditions: Table IE1, CDK4/6 inhibitor-based; Molt-4, 96 hours; read-out: Inhibitory activity (IC50, nM) on tumor cell proliferation, Molt-4.
The next experiment concerns the target T3, Tau (Homo sapiens, UniProt P10636).
T3 construct: endogenous in cells
Kind of experiment: Western blot degradation of Tau. Format: cell-based. As to conditions: H4 Cell; 24 hours. The method, then:
Conventional Western blot assay was performed to evaluate the effects of the compounds of the present disclosure on the expression of target proteins in cells.
(1) Cell Seeding and Protein Harvesting: The selected cells were processed according to the cell seeding procedure and protein harvesting procedure in Table II-2.
(2) To the collected supernatant, 5×SDS sample loading buffer was added, followed by denaturation at 95 °C for 5 minutes. The denatured samples were then separated by SDS-PAGE electrophoresis on a polyacrylamide gel. Proteins were transferred to a nitrocellulose membrane (0.45 μm NC membrane), blocked with blocking buffer at room temperature for 1 hour, and subjected to antibody incubation and development procedures according to the antibody manufacturer's instructions (Cell Signaling Technology).
Half-Maximal Degradation Concentration value (the drug concentration required for degrading proteins by 50%, abbreviated as DC50) reads method: comparing the grayscale values of Western blot bands from drug-treated samples with those from blank DMSO-treated controls, and identifying the drug concentration range at which the grayscale value is half that of the DMSO-treated control bands.
DC50 values can be calculated using ImageJ software to measure grayscale values of Western blot bands from drug-treated samples. The concentration-response curve is fitted to estimate the drug concentration corresponding to half the grayscale value.
Target protein remaining (%) refers to the percentage of target protein remaining in cells after treatment with protein degrader compounds.
Calculation method for target protein remaining (%): Use ImageJ software to measure grayscale values of Western blot bands from drug (protein degrader)-treated samples. The grayscale value of drug-treated bands is divided by that of internal control protein bands, and the resulting quotient is normalized to obtain the relative percentage of remaining target protein after protein degrader treatment.
Target protein degradation rate (%)=1−target protein remaining (%).

For experiment [6], the system named is Human lung cancer cell line (H292). The experiment can be described thus: Inhibition of H292 cell proliferation (CellTiter luminescent viability). The experiment is classed as cell-based. As to conditions: NCI-H292, Table IE2, CDK4/6 inhibitor-based, 96 hours.

Broadly, the inhibition is the relative decrease from the control value, in per cent.

Molecules are shown by their SMILES.

T3 sequence (P10636 whole entry): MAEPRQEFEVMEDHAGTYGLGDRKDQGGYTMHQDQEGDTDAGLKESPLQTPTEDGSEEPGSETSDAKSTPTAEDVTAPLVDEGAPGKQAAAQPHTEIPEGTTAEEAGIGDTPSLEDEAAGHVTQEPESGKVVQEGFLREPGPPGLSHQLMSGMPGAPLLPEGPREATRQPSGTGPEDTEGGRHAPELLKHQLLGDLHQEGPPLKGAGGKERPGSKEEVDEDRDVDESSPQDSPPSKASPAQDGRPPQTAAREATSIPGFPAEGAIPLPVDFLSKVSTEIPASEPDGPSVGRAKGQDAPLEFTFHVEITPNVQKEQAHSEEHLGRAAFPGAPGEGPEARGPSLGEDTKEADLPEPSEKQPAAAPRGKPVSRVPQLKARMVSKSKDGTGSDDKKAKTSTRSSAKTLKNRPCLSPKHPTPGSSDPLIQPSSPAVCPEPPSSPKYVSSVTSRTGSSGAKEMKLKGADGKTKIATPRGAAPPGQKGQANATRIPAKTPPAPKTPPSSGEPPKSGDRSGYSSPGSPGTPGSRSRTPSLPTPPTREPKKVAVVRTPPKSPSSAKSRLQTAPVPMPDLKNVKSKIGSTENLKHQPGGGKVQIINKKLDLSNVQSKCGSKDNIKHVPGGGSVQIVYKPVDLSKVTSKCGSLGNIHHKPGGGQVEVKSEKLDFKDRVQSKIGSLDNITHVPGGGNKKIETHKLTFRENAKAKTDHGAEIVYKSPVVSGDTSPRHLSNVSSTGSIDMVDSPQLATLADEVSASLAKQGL
T2 sequence (Q00534 whole entry): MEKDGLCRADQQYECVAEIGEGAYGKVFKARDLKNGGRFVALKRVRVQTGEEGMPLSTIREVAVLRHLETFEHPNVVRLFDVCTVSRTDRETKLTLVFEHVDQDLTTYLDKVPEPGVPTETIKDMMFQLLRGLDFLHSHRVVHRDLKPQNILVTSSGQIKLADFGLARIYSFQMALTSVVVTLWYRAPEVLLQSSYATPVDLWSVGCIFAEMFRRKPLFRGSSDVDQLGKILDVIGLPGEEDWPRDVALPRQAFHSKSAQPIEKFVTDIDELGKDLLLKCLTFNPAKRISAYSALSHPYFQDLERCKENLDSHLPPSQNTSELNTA
T2 sequence (Q96SW2 whole entry): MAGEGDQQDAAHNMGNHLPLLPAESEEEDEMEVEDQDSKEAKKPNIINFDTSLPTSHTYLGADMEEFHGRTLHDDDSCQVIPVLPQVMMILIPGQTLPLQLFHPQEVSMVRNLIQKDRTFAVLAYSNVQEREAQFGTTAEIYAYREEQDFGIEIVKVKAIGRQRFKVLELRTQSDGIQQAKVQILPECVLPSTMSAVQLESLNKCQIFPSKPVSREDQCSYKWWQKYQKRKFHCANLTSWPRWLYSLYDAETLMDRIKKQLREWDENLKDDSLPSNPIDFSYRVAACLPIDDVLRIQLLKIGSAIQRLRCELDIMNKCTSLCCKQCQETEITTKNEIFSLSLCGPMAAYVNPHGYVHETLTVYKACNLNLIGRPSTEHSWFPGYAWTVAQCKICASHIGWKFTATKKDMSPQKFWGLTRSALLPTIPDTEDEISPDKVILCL
T2 sequence (Q16531 whole entry partner): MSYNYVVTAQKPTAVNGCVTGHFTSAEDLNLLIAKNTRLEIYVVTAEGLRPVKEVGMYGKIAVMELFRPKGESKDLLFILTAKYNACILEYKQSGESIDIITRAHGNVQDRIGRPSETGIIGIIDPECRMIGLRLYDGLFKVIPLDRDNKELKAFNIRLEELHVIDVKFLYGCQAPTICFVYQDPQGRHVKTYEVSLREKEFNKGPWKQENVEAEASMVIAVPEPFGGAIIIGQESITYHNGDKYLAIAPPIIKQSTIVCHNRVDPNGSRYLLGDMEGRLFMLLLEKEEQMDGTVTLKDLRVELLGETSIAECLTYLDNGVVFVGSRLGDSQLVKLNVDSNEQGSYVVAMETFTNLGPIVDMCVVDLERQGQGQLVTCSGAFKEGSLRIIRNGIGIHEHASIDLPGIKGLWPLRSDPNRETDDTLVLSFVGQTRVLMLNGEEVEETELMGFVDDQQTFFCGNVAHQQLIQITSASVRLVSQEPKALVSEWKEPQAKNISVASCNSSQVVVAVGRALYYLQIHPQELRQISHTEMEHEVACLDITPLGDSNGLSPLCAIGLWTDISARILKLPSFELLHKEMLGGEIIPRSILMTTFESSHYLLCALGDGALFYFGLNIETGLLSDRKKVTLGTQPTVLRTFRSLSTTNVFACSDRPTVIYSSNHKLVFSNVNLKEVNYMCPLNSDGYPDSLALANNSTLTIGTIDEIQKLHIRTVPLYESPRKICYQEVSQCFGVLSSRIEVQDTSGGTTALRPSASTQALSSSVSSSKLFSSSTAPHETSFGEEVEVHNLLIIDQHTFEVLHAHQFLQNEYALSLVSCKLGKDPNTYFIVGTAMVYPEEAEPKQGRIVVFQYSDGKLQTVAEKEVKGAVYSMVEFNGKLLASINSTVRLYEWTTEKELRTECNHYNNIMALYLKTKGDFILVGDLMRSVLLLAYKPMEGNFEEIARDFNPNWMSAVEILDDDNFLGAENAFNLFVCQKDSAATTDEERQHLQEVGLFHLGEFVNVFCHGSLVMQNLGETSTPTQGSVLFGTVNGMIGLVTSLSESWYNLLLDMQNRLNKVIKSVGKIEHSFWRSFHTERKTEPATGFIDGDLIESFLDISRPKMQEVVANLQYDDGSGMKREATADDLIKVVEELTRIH
T1 sequence (P11802 whole entry): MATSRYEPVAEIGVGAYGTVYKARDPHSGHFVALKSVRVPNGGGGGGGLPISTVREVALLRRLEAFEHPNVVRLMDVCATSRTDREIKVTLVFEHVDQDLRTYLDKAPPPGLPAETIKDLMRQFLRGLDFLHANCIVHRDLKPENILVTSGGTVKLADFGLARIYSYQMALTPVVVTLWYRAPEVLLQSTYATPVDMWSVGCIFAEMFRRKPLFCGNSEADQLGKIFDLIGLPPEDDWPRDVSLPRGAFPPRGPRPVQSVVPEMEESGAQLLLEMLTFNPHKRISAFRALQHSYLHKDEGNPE
T1 sequence (Q96SW2 whole entry): as the sequence (Q96SW2 whole entry) above
T1 sequence (Q16531 whole entry partner): as the sequence (Q16531 whole entry partner) above

In the case of `Cc1nc2c(F)cc(-c3nc(Nc4ccc(N5CCN(Cc6ccc7c(c6)CN(N6CCC(=O)NC6=O)C7=O)CC5)cn4)ncc3F)cc2n1C(C)C` [GT-06672, 1-(5-((4-(6-((5-fluoro-4-(4-fluoro-1-isopropyl-2-methyl-1H-benzo[d]imidazol-6-yl)pyrimidin-2-yl)amino)pyridin-3-yl)piperazin-1-yl)methyl)-1-oxoisoindolin-2-yl)dihydropyrimidine-2,4 (1H,3H)-dione], the IC50 in experiment [1] was 10 to 50 nM; in experiment [2] it was 400 to 800 nM; in experiment [3], 100 to 300 nM; in experiment [4], 100 to 300 nM.

For the molecule `Cc1nc2c(F)cc(-c3nc(Nc4ccc(N5CCC(N6CCN(Cc7ccc8c(c7)CN(N7CCC(=O)NC7=O)C8=O)CC6)CC5)cn4)ncc3F)cc2n1C(C)C` [GT-06736, 1-(5-((4-(1-(6-((5-fluoro-4-(4-fluoro-1-isopropyl-2-methyl-1H-benzo[d]imidazol-6-yl)pyrimidin-2-yl)amino)pyridin-3-yl)piperidin-4-yl)piperazin-1-yl)methyl)-1-oxoisoindolin-2-yl)dihydropyrimidine-2,4 (1H,3H)-dione], the IC50 lay within 10 to 50 nM in [1]; 100 to 300 nM in experiment [5]; 100 to 300 nM in [2]; 10 to 50 nM in experiment [3]; 50 to 100 nM in experiment [4]. Moreover, the “Degradation of substrate protein CDK4 (substrate protein remaining %)” value on CDK4 was “B (80%<substrate protein remaining %≤100%)”. The “Degradation of substrate protein CDK6 (substrate protein remaining %)” value on CDK6 is reported as “A (0%≤substrate protein remaining %≤80%)”.

On to `Cc1nc2c(F)cc(-c3nc(Nc4ccc(N5CCC(N(C)Cc6ccc7c(c6)CN(N6CCC(=O)NC6=O)C7=O)CC5)cn4)ncc3F)cc2n1C(C)C` [GT-06837, 1-(5-(((1-(6-((5-fluoro-4-(4-fluoro-1-isopropyl-2-methyl-1H-benzo[d]imidazol-6-yl)pyrimidin-2-yl)amino)pyridin-3-yl)piperidin-4-yl)(methyl)amino)methyl)-1-oxoisoindolin-2-yl)dihydropyrimidine-2,4 (1H,3H)-dione], for which the IC50 in experiment [1] fell in the range of 10 to 50 nM; in experiment [5] it was 100 to 300 nM; in experiment [2] it was 100 to 300 nM; in [3] it was 10 to 50 nM; in [4], 100 to 300 nM. Moreover, at CDK4, the “Degradation of substrate protein CDK4 (substrate protein remaining %)” value is “A (0%≤substrate protein remaining %≤80%)”. Also, the “Degradation of substrate protein CDK6 (substrate protein remaining %)” value on CDK6 is “A (0%≤substrate protein remaining %≤80%)”.

For `O=C1CCN(N2C(=O)c3ccc(CN4CCN(C5CCN(c6ccn7c(n6)nc6ccccc67)CC5)CC4)cc3C2=O)C(=O)N1` [GT-08568, 5-((4-(1-(benzo[4,5]imidazo[1,2-a]pyrimidin-2-yl)piperidin-4-yl)piperazin-1-yl)methyl)-2-(2,4-dioxotetrahydropyrimidin-1(2H)-yl)isoindoline-1,3-dione], the “Degradation of substrate protein Tau (substrate protein remaining %)” value on Tau is given as “A (0%≤substrate protein remaining %≤80%)”.

With `Cn1ncc(Cl)c1-c1cc(C(=O)N[C@H](CNCC2CCN(c3cccc4c3C(=O)N(N3CCC(=O)NC3=O)C4=O)CC2)Cc2ccc(F)c(F)c2)oc1Cl` [GT-08589, (S)-5-chloro-4-(4-chloro-1-methyl-1H-pyrazol-5-yl)-N-(1-(3,4-difluorophenyl)-3-(((1-(2-(2,4-dioxotetrahydropyrimidin-1(2H)-yl)-1,3-dioxoisoindolin-4-yl)piperidin-4-yl)methyl)amino)propan-2-yl) furan-2-carboxamide], on Tau, the “Degradation of substrate protein Tau (substrate protein remaining %)” value is “A (0%≤substrate protein remaining %≤80%)”.

As for `Cn1ncc(Cl)c1-c1cc(C(=O)N[C@@H](Cc2ccc(F)c(F)c2)CN2CCN(CC3CCN(c4cccc5c4C(=O)N(N4CCC(=O)NC4=O)C5=O)CC3)CC2)oc1Cl` [GT-08590, (S)-5-chloro-4-(4-chloro-1-methyl-1H-pyrazol-5-yl)-N-(1-(3,4-difluorophenyl)-3-(4-((1-(2-(2,4-dioxotetrahydropyrimidin-1(2H)-yl)-1,3-dioxoisoindolin-4-yl)piperidin-4-yl)methyl)piperazin-1-yl)propan-2-yl) furan-2-carboxamide], the “Degradation of substrate protein Tau (substrate protein remaining %)” value on Tau was “A (0%≤substrate protein remaining %≤80%)”.

`Cn1ncc(Cl)c1-c1cc(C(=O)N[C@@H](Cc2cccc(F)c2)CN2CCN(CC3CCN(c4cccc5c4C(=O)N(N4CCC(=O)NC4=O)C5=O)CC3)CC2)sc1Cl` [GT-08591, (S)-5-chloro-4-(4-chloro-1-methyl-1H-pyrazol-5-yl)-N-(1-(4-((1-(2-(2,4-dioxotetrahydropyrimidin-1(2H)-yl)-1,3-dioxoisoindolin-4-yl)piperidin-4-yl)methyl)piperazin-1-yl)-3-(3-fluorophenyl)propan-2-yl)thiophene-2-carboxamide]: on Tau, the “Degradation of substrate protein Tau (substrate protein remaining %)” value is on record as “A (0%≤substrate protein remaining %≤80%)”.

On to `CC(=O)c1c(C)c2cnc(Nc3ccc(N4CCNCC4)cn3)nc2n(C2CCCC2)c1=O` [Palbociclib, reference compound], for which the IC50 lay in the range of 300 to 400 nM in experiment [1]; 1000 to 5000 nM in experiment [5]; 1000 to 5000 nM in experiment [2]; 1000 to 5000 nM in experiment [3]; 1000 to 5000 nM in [4]. Also, the inhibition at 0.01 µM in [6] (H292, 10 nM, read-out: Inhibition Rate at 10 nM (%)) was 10 to 15%. Further, the inhibition at 0.5 µM in experiment [6] (H292, 500 nM, read-out: Inhibition Rate at 500 nM (%)) was 25 to 30%.

For `CN(C)C(=O)c1cc2cnc(Nc3ccc(N4CCNCC4)cn3)nc2n1C1CCCC1` [Ribociclib, reference compound], the IC50 in experiment [1] is 5000 to 10000 nM; in [5], more than 10000 nM; in experiment [2], 1000 to 5000 nM; in [3], 5000 to 10000 nM; in experiment [4] it was 1000 to 5000 nM. Besides, in experiment [1] (Table IE3, CDK4/6 inhibitor-based, MV-4-11, 10 nM, 96 hours), the “Inhibition Rate at 10 nM (%)” value is listed as “IEb2 (5% ≤ IEb2 < 10%)”. The “Inhibition Rate at 500 nM (%)” value in [1] (Table IE3, CDK4/6 inhibitor-based, MV-4-11, 500 nM, 96 hours) was “IEb7 (30% ≤ IEb7 < 35%)”.
